Patent publication US20240299488A1, “METHODS AND COMPOSITIONS FOR IMPROVING VISUAL FUNCTION IN OCULAR DISEASES AND DISORDERS” (ONL Therapeutics, Inc., priority 2021, published 2024)
Several values for one entry are separate records, joined by “and”; a condition that tells them apart may be missing. Equal entries are not always repeated. Ends that are not written are not given here.

Columns and labels:
Type in all cases: in vivo, human
IL18 = test: Example 2: change in cytokine level in ocular fluid samples, IL18
Description: (§1) The primary objective was to determine the Maximum Tolerated Dose (MTD) of a peptide an amino acid sequence […] and the structure of Formula III (ONL1204) and select doses for further clinical studies. During the study, ocular fluid samples were also collected at the time of study drug injection and at the time of vitrectomy. These samples were used for pharmacokinetic and pharmacodynamic analyses.
(§2) Patients were enrolled in ascending dose groups. […] Safety visits were conducted one day post-injection and as deemed necessary by the examining Investigator (at least 1 visit every 3 days) until Visit 3. At Visit 3 (3+ days post-injection, in accordance with standard of care) patients underwent surgical repair of their retinal detachment with vitrectomy (with or without scleral buckling) and gas or oil tamponade. At the time of surgery, an undiluted vitreous sample was collected for pharmacokinetic and pharmacodynamics analyses, and an aqueous sample was collected for pharmacodynamic analysis. Additional safety visits were targeted for and generally conducted one day post-surgery, 7 days (±3 days) post-surgery, 14 (+4 days) days post-surgery, and Weeks 6, 9, 12 (±7 days each), and Week 24 (+14 days; study exit).

[1] = test system: patients with retinal detachment; test: Example 2: safety, adverse event reporting
Description: as §1, §2
The following doses were evaluated: 25 microgram (ug) and 50 ug provided in vials with concentrations of 0.5 mg/mL and/or 2 mg/mL of Formula III. Therefore, a volume of 0.05 or 0.1 mL was injected into the study eye. Patient participation was approximately 24 weeks (6 months): a single injection treatment and 24 weeks of follow-up.
Planned determinations of dose limiting toxicity included consideration of the following events: • 1.

IL1RA = test: Example 2: change in cytokine level in ocular fluid samples, IL1RA
Description: as §1, §2

MCP1 = test: Example 2: change in cytokine level in ocular fluid samples, MCP1
Description: as §1, §2

ICAM1 = test: Example 2: change in cytokine level in ocular fluid samples, ICAM1
Description: as §1, §2

[2] = test system: patients having macular degeneration characterized by geographic atrophy (GA); test: Example I: BCVA in GA patients after single intravitreal injection
[3] = test system: patients with retinal detachment; test: Example 2: BCVA in retinal detachment patients, intravitreal injection followed by surgical repair; design: key to BCVA Snellen study eye: (HM) = hand motion; (CF) = counting fingers; details: for summary statistics for all patients, mean: doses 25 to 200 ug, baseline mean 1.86
Description: as §1, §2
Therefore, a volume of 0.05 or 0.1 mL was injected into the study eye. Patient participation was approximately 24 weeks (6 months): a single injection treatment and 24 weeks of follow-up.

[4] = dose 25 ug (Table 1), individual patients
[5] = dose 50 ug (Table 1), individual patients
[6] = dose 100 ug (Table 1), individual patients
[7] = dose 200 ug (Table 1), individual patient

HHIYLGAVNYIY-NH2 [ONL1204]
Percent Change (%) from time of administering ONL1204 to surgery, IL18 (IL18; [4]): −60.5% and −22.5% and −50.8% | Percent Change (%) from time of administering ONL1204 to surgery, IL18 (IL18; [5]): 0% (2×) and −100% | Percent Change (%) from time of administering ONL1204 to surgery, IL18 (IL18; [6]): −33.7% and 0% and 66.0% | Percent Change (%) from time of administering ONL1204 to surgery, IL18 (IL18; [7]): 0% | patients who experienced adverse events ([1]; 4 patients receiving 25 ug and 4 patients receiving 50 ug): 7 out of 8 | severity and relatedness of adverse events ([1]; 8 patients, 25 ug and 50 ug): Most were mild, and study procedure or surgery related | total number of adverse events ([1]; 8 patients, 25 ug and 50 ug): 20 | Percent Change (%) from time of administering ONL1204 to surgery, IL1RA (IL1RA; [4]): −51.0% and −57.4% and −99.3% | Percent Change (%) from time of administering ONL1204 to surgery, IL1RA (IL1RA; [5]): −60.0% and −94.4% and −88.3% | Percent Change (%) from time of administering ONL1204 to surgery, IL1RA (IL1RA; [6]): 8.5% and −46.1% and −65.2% | Percent Change (%) from time of administering ONL1204 to surgery, IL1RA (IL1RA; [7]): −26.3% | Percent Change (%) from time of administering ONL1204 to surgery, MCP1 (MCP1; [4]): −41.4% and −6.02% and −35.9% | Percent Change (%) from time of administering ONL1204 to surgery, MCP1 (MCP1; [5]): −3.12% and −48.4% and 11.6% | Percent Change (%) from time of administering ONL1204 to surgery, MCP1 (MCP1; [6]): −9.5% and 78.5% and 500% | Percent Change (%) from time of administering ONL1204 to surgery, MCP1 (MCP1; [7]): −2.4% | change in cytokine levels (MCP 1, ICAM, IL IRA, and IL 18) from time of ONL1204 administration to surgery (MCP1; mean over patients of Table 7): mean decrease | Percent Change (%) from time of administering ONL1204 to surgery, ICAM1 (ICAM1; [4]): −82.4% and −42.7% and −86.2% | Percent Change (%) from time of administering ONL1204 to surgery, ICAM1 (ICAM1; [5]): 64.0% and −100% and 0% | Percent Change (%) from time of administering ONL1204 to surgery, ICAM1 (ICAM1; [6]): −43.9% and 24.9% and 22.7% | Percent Change (%) from time of administering ONL1204 to surgery, ICAM1 (ICAM1; [7]): 0% | change in best corrected visual acuity (BCVA) ([2]; compared to baseline BCVA, FIG. 1, 1 to 24 weeks post treatment): improvement in visual acuity was generally observed | visual outcomes (e.g., visual acuity) ([2]; doses comprising 25 ug and 50 ug, single intravitreal injection): showed an improvement in visual outcomes | summary statistics for all patients, mean ([3]; Week 6, n 14): 0.65 | summary statistics for all patients, mean ([3]; Week 9, n 13): 0.78 | summary statistics for all patients, mean ([3]; Week 24, n 13): 0.56 | visual outcomes, all patients receiving ONL1204 ([3]; also with greater than 10 days of central vision loss, 3 to 7 days from administration to surgery, range of detachment heights and extents): improved visual outcomes were observed for all patients receiving ONL1204 | visual outcomes (e.g., visual acuity) ([3]; retinal detachment patients, doses comprising 25 ug and 50 ug, with surgery): showed an improvement in visual outcomes | BCVA Snellen study eye ([3]; week 9, dose 100 ug, individual patients): HM
